# Assay results reported in ChEMBL document CHEMBL6109084 (Eur J Med Chem, 2025).
# Calls of active or inactive are those of the source. No cut-off for these calls is given here.
# Tested on: HepG2
# Assay: Cytotoxicity against human HepG2 cells assessed as reduction in cell viability at 1 to 50 uM incubated for 24 hrs by MTT assay
# Type: toxicity, cell-based
# Details: hepg2, 24 h, dose 1-50 µM
row,Structure (SMILES),Activity
1,O=C(NC[C@H]1CN(c2ccc(N3CCOCC3=O)cc2)C(=O)O1)c1ccc(Cl)s1 [RIVAROXABAN],Non-toxic

# Tested on: Plasma
# Assay: Anticoagulant activity in mouse plasma assessed as prolongation of activated partial thromboplastin time incubated for 3 mins by aPTT reagent based automated coagulometric analysis
# Type: functional
# Details: 0.05 h
row,Structure (SMILES),EC1.5 [µM]
1,CC[C@@H](C(=O)Nc1ccc(C(N)=O)c(F)c1)n1cc(OC)c(-c2cc(Cl)ccc2-n2cc(Cl)nn2)cc1=O,2.7

# Tested on: Mus musculus
# Assay: Antithrombotic activity in FeCl3-induced carotid arterial thrombosis C57BL/6J mouse model assessed as increase in peak velocity at 10 mg/kg, po measured after 0.5 to 4 hrs
# Type: functional, organism-based
# Details: time 0.5-4 hrs
row,Structure (SMILES),Activity
1,CC[C@@H](C(=O)Nc1ccc(C(N)=O)c(F)c1)n1cc(OC)c(-c2cc(Cl)ccc2-n2cc(Cl)nn2)cc1=O,Active

# Tested on: not listed separately
# Assay: Plasma protein binding in human
# Type: ADME, cell-free
# Details: read-out: PPB (converted)
row,fraction unbound,Structure (SMILES)
1,0.159,COc1cn(Cc2cc(-c3ccncc3)ccn2)c(=O)cc1-c1cc(Cl)ccc1-n1cnnn1
2,0.004,CCC(c1cccc(-c2ccc(N)nc2)c1)n1cc(OC)c(-c2cc(Cl)ccc2-n2cnnn2)cc1=O (stereo unspecified)
3,0.027,COc1cn(Cc2cccc(-c3ccncc3)c2)c(=O)cc1-c1cc(Cl)ccc1-n1cnnn1

# Tested on: Plasma
# Assay: Anticoagulant activity in citrated human plasma assessed as prolongation of activated partial thromboplastin time at 1 uM incubated for 3 mins by aPTT reagent based automated coagulometric analysis relative to control
# Type: functional
# Details: 0.05 h
row,Structure (SMILES),Activity [%]
1,CC[C@@H](C(=O)Nc1ccc(C(N)=O)c(F)c1)n1cc(OC)c(-c2cc(Cl)ccc2-n2cc(Cl)nn2)cc1=O,248.2
2,COc1cn(Cc2cc(-c3ccncc3)ccn2)c(=O)cc1-c1cc(Cl)ccc1-n1cnnn1,167.2
3,CCC(c1cccc(-c2ccc(N)nc2)c1)n1cc(OC)c(-c2cc(Cl)ccc2-n2cnnn2)cc1=O (stereo unspecified),45.7
4,CC[C@H](c1cc(-c2ccc(N)nc2)ccn1)n1cc(OC)c(-c2cc(Cl)ccc2-n2cnnn2)cc1=O,59.6
5,COc1cn(Cc2cccc(-c3ccncc3)c2)c(=O)cc1-c1cc(Cl)ccc1-n1cnnn1,122.1

# Tested on: not listed separately
# Assay: Toxicity in C57BL/6J mouse assessed as prolongation of bleeding time at 10 mg/kg, IG measured after 30 mins by tail bleeding assay
# Type: organism-based
# Details: in vivo, po, 0.5 h
row,Structure (SMILES),Activity
1,O=C(NC[C@H]1CN(c2ccc(N3CCOCC3=O)cc2)C(=O)O1)c1ccc(Cl)s1 [RIVAROXABAN],Toxic

# Tested on: not listed separately
# Assay: Toxicity in male New Zealand white rabbit assessed as prolongation of bleeding time at 2 mg/kg, iv by ear bleeding assay
# Type: organism-based, Oryctolagus cuniculus
# Details: in vivo
row,Structure (SMILES),Activity
1,O=C(NC[C@H]1CN(c2ccc(N3CCOCC3=O)cc2)C(=O)O1)c1ccc(Cl)s1 [RIVAROXABAN],Toxic

# Tested on: not listed separately
# Assay: Cytotoxicity against human AC16 [Human hybrid] cells assessed as reduction in cell viability at 1 to 50 uM incubated for 24 hrs by MTT assay
# Type: toxicity, cell-based
# Details: dose 1-50 µM
row,Structure (SMILES),Activity
1,O=C(NC[C@H]1CN(c2ccc(N3CCOCC3=O)cc2)C(=O)O1)c1ccc(Cl)s1 [RIVAROXABAN],Non-toxic

# Tested on: HK-2
# Assay: Cytotoxicity against human HK-2 cells assessed as reduction in cell viability at 50 uM incubated for 24 hrs by MTT assay
# Type: toxicity, cell-based
# Details: hk-2, 24 h
row,Structure (SMILES),Activity
1,CC[C@H](c1cc(-c2ccc(N)nc2)ccn1)n1cc(OC)c(-c2cc(Cl)ccc2-n2cnnn2)cc1=O,Toxic

# Tested on: Mus musculus
# Assay: Antithrombotic activity in FeCl3-induced carotid arterial thrombosis C57BL/6J mouse model assessed as increase in blood flow velocity at 10 mg/kg, po measured after 0.5 to 4 hrs
# Type: functional, organism-based
# Details: time 0.5-4 hrs
row,Structure (SMILES),Activity
1,CC[C@@H](C(=O)Nc1ccc(C(N)=O)c(F)c1)n1cc(OC)c(-c2cc(Cl)ccc2-n2cc(Cl)nn2)cc1=O,Active; Outperformed Asundexian And Compound F

# Molecular target: Coagulation factor XI (Homo sapiens, UniProt P03951)
# Sequence (P03951 19-387 limits assumed): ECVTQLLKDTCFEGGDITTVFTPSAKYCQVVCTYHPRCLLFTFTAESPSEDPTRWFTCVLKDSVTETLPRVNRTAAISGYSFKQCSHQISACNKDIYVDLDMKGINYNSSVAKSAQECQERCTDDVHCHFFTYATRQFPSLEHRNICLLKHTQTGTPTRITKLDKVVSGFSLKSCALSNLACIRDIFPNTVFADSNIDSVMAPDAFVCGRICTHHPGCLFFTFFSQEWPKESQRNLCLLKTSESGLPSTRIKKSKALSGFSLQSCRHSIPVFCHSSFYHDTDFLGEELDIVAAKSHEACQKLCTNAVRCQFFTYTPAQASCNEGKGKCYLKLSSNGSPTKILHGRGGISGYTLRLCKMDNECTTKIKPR
# Sequence (P03951 388-625 limits assumed): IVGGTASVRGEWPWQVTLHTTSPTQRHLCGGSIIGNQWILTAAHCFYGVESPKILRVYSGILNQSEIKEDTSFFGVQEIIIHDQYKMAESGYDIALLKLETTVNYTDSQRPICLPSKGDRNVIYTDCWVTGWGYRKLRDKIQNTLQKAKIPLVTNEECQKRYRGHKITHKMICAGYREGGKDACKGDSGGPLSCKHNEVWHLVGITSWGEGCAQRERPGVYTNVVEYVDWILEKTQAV
# Assay: Inhibition of human FXIa using p-Glu-Pro-Arg-pNA.HCl as substrate incubated for 30 mins followed by substrate addition and measured after 60 mins by microplate reader analysis
# Details: not given
row,IC50 [nM],Structure (SMILES)
1,1.2,COc1cn(Cc2cc(-c3ccncc3)ccn2)c(=O)cc1-c1cc(Cl)ccc1-n1cnnn1
2,0.24,CCC(c1cccc(-c2ccc(N)nc2)c1)n1cc(OC)c(-c2cc(Cl)ccc2-n2cnnn2)cc1=O (stereo unspecified)
3,10.6,CC[C@H](c1cc(-c2ccc(N)nc2)ccn1)n1cc(OC)c(-c2cc(Cl)ccc2-n2cnnn2)cc1=O
4,0.5,COc1cn(Cc2cccc(-c3ccncc3)c2)c(=O)cc1-c1cc(Cl)ccc1-n1cnnn1

# Tested on: HK-2
# Assay: Cytotoxicity against human HK-2 cells assessed as reduction in cell viability at 1 to 50 uM incubated for 24 hrs by MTT assay
# Type: toxicity, cell-based
# Details: hk-2, 24 h, dose 1-50 µM
row,Structure (SMILES),Activity
1,O=C(NC[C@H]1CN(c2ccc(N3CCOCC3=O)cc2)C(=O)O1)c1ccc(Cl)s1 [RIVAROXABAN],Non-toxic
